# In the oligonucleotide strings, read from the 5' end, every base follows the letter of its sugar. An asterisk marks phosphorothioate; unmarked linkages are phosphodiester. Other units and linkages are bracketed, terminal groups are in braces. A string of capitals states the bases alone. {NAG37} = tridentate N-acetyl-galactosamine targeting ligand, structure (NAG37)s; [invAb] = inverted abasic unit; m = 2'-O-methyl; f = 2'-fluoro
# Tests used:
# ANGPTL3 protein = assay: Example 10: serum ANGPTL3 protein by ELISA in mice; format: in vivo; conditions: 0.5 mg/kg single SC injection day 1, female C57bl/6 mice, n=3, ratio to D5W control
# Experimental: (§1) To assess the in vivo activity of further ANGPTL3 RNAi agents that are designed to target position 304 on the ANGPTL3 gene, six- to eight-week-old female C57bl/6 mice were used. Pre-dose serum samples were taken at day −1 after a four hour fast. At day 1, each mouse was given a single subcutaneous administration of 200 μl containing 0.5 mg/kg (mpk) of an ANGPTL3 RNAi agent in D5W (dextrose in 5% water), or control (D5W) with no RNAi agent, according to the dosing groups recited in Table 47.
# (§2) Each of the RNAi agents included a modified sequence and an N-acetyl-galactosamine-containing targeting ligand conjugated to the 5′ terminal end of the sense strand. (See Tables 3, 4, and 5 for modified sequences and targeting ligand structures). As noted above, each of the ANGPTL3 RNAi agents dosed in this study included nucleotide sequences designed to target the ANGPTL3 gene at position 304. The injections were performed between the skin and muscle (i.e. subcutaneous injections) into the loose skin over the neck and shoulder area. Three (3) mice in each group were tested (n=3). Serum was collected on days 8, 15, 22, 29, and for some groups on day 36 (i.e., Groups 1, 2, and 9-13 only). Mice were fasted for four hours prior to each collection. ANGPTL3 protein levels in serum were measured by ELISA assay (R&D Systems), according to the manufacturer's recommendations. Triglycerides, total cholesterol, high-density lipoprotein (HDL), and low-density lipoprotein (LDL) in serum were measured on a Cobas® Integra 400 (Roche Diagnostics), according to the manufacturer's recommendations.
# (§3) The ANGPTL3 protein levels, triglyceride levels, total cholesterol levels, HDL levels, and LDL levels for each animal were normalized. For normalization, the level of ANGPTL3 protein, triglyceride, HDL, and total cholesterol, respectively, for each animal at a time point, was divided by the pre-treatment level of expression in that animal (in this case at day −1) to determine the ratio of expression “normalized to pre-treatment.” Expression at a specific time point was then normalized to the D5W control group by dividing the “normalized to pre-treatment” ratio for an individual animal by the mean “normalized to pretreatment” ratio of all mice in the D5W control group.
# ANGPTL3 gene [1] = assay: Example 10: serum LDL in mice; format: in vivo, C57bl/6 mice; conditions: 0.5 mg/kg sc
# Experimental: as §1, §2, §3
# ANGPTL3 gene [2] = assay: Example 9: serum total cholesterol in cynomolgus monkeys; format: in vivo, cynomolgus macaque (Macaca fascicularis); conditions: 2.0 mg/kg single SC injection day 1, cynos, n=3
# Experimental: Additional ANGPTL3 RNAi agents were evaluated in cynomolgus monkeys. On day 1, cynomolgus macaque (Macaca fascicularis) primates (also referred to herein as “cynos”) were administered a single subcutaneous injection of 0.3 mL/kg (approximately 2-3 mL volume, depending on animal mass) containing 2.0 mg/kg of an ANGPTL3 RNAi agent, which included either AD05488, AD05743, AD05775, or AD05841, each formulated in saline. […] ANGPTL3 RNAi agents AD05488, AD05743, and AD05775 included nucleotide sequences designed to target position 304 of the ANGPTL3 gene. ANGPTL3 RNAi agent AD05841 included nucleotide sequences designed to target position 1035 of the ANGPTL3 gene.
# Three (3) cynos in each group were tested (n=3). Blood samples were drawn and serum samples were analyzed on days −14 (predose), −7 (predose), 1 (pre-dose), 8, 15, 22, 29, and 35. Cynos were fasted overnight prior to each collection. ANGPTL3 protein levels in serum were measured by ELISA assay (R&D Systems), according to the manufacturer's recommendations. Triglycerides, total cholesterol, high-density lipoprotein (HDL), and low-density lipoprotein (LDL) in serum were measured on a Cobas® Integra 400 (Roche Diagnostics), according to the manufacturer's recommendations.
# The ANGPTL3 protein levels, triglyceride levels, total cholesterol levels, HDL levels, and LDL levels for each animal were normalized. For normalization, the level of ANGPTL3 protein, triglyceride, HDL, and total cholesterol, respectively, for each animal at a time point, was divided by the average pre-treatment level of expression in that animal (in this case at days −14, −7, and 1) to determine the ratio of expression “normalized to pre-treatment.”
substance,measurement,setting,value
"AD05488: RNAi agent duplex: antisense AM07235-AS, sense AM07234-SS (antisense mU*fA*mC*fUmGfAmUfCmAfAmAfUmAfUmGfUmUfGmAfG*mC; sense {NAG37}*[invAb]*mGmCmUmCmAmAmCmAfUfAfUmUmUmGmAmUmCmAmGmUmA*[invAb])",Average ANGPTL3 Protein Normalized to Pre-Treatment and Control,ANGPTL3 protein; Day 8,0.179
same,Average ANGPTL3 Protein Normalized to Pre-Treatment and Control,ANGPTL3 protein; Day 15,0.197
same,Average ANGPTL3 Protein Normalized to Pre-Treatment and Control,ANGPTL3 protein; Day 22,0.196
same,Average ANGPTL3 Protein Normalized to Pre-Treatment and Control,ANGPTL3 protein; Day 29,0.258
same,Average ANGPTL3 Protein Normalized to Pre-Treatment and Control,ANGPTL3 protein; Day 36,0.297
same,Avg LDL Normalized to Pre-Treatment and Control,ANGPTL3 gene [1]; Day 8,0.836
same,Avg LDL Normalized to Pre-Treatment and Control,ANGPTL3 gene [1]; Day 15,0.969
same,Avg LDL Normalized to Pre-Treatment and Control,ANGPTL3 gene [1]; Day 22,0.901
same,Avg LDL Normalized to Pre-Treatment and Control,ANGPTL3 gene [1]; Day 29,0.762
same,Avg LDL Normalized to Pre-Treatment and Control,ANGPTL3 gene [1]; Day 36,0.863
same,Average Total Cholesterol Normalized to Pre-Treatment,ANGPTL3 gene [2]; Day 8,0.823
same,Average Total Cholesterol Normalized to Pre-Treatment,ANGPTL3 gene [2]; Day 15,0.744
same,Average Total Cholesterol Normalized to Pre-Treatment,ANGPTL3 gene [2]; Day 22,0.709
same,Average Total Cholesterol Normalized to Pre-Treatment,ANGPTL3 gene [2]; Day 29,0.687
same,Average Total Cholesterol Normalized to Pre-Treatment,ANGPTL3 gene [2]; Day 35,0.659

# Source: US12729377B2, “RNAi agents and compositions for inhibiting expression of angiopoietin-like 3 (ANGPTL3), and methods of use” (Arrowhead Pharmaceuticals, Inc., priority 2017, dated 2026)
